This note sets out measurements from article PMC9488892 (Medicinal Chemistry Research, 2022).

The target in experiment [1] is melatonin type I (MT1) receptor (Homo sapiens, UniProt P48039). The class given is cell-based.
Experiment [2] has as its target T1, melatonin type II (MT2) receptor (Homo sapiens, UniProt P49286).
T1 sequence (P49286 1-362): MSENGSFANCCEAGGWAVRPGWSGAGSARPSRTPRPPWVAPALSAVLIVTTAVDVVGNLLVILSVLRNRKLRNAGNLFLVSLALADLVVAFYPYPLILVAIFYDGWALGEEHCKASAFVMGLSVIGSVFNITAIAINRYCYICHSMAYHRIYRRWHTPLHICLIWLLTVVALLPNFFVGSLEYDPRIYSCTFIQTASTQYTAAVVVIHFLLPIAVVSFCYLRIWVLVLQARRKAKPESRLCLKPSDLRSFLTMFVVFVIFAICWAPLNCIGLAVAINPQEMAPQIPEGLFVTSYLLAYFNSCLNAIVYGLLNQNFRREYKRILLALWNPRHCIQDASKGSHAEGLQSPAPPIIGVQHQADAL
The experiment is classed as cell-based.

Chain of melatonin type I (MT1) receptor (P48039 whole entry): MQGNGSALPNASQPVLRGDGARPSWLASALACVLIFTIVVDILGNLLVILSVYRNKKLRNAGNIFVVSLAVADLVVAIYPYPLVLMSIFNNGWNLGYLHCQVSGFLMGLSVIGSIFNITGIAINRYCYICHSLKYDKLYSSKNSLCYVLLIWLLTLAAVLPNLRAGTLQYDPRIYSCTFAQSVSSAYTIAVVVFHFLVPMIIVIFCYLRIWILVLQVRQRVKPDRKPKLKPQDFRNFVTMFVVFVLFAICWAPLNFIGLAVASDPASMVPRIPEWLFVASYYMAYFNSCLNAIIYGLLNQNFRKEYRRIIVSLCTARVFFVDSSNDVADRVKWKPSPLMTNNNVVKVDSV

Take `Cc1cc2c(cc1O)[C@@H](C)[C@H]1Oc3cc(C)c(O)cc3[C@@]1(CN1CCN(C)CC1)O2` [compound 13, (5aS,10aR,11R)-3,8,11-trimethyl-5a-((4-methylpiperazin-1-yl)methyl)-5a,10a-dihydro-11H-benzofuro[3,2-b]chromene-2,7-diol]: the figures for the EC50 in experiment [1] and in experiment [2] were 200 µM and 240 µM, respectively.
